Several values for one entry are separate records, joined by “and”; a condition that tells them apart may be missing. Equal entries are not always repeated.
Assay: molar heat capacity at constant pressure
Conditions: 101.33 kPa, Small (less than 1 g) adiabatic calorimetry

CCCCCCCC[n+]1ccn(C)c1.F[B-](F)(F)F [1-methyl-3-octylimidazolium tetrafluoroborate]
molar heat capacity at constant pressure
Conditions	Crystal	Glass
5 K	1.51 J/K/mol	1.78 J/K/mol
5.07 K	–	1.855 J/K/mol
5.13 K	1.622 J/K/mol	–
5.35 K	–	2.152 J/K/mol
5.41 K	1.892 J/K/mol	–
5.63 K	–	2.475 J/K/mol
5.69 K	2.194 J/K/mol	–
5.92 K	–	2.835 J/K/mol
5.98 K	2.524 J/K/mol	–
6.24 K	–	3.263 J/K/mol
6.3 K	2.928 J/K/mol	–
6.6 K	–	3.776 J/K/mol
6.66 K	3.407 J/K/mol	–
6.96 K	–	4.337 J/K/mol
7.03 K	3.928 J/K/mol	–
7.33 K	–	4.94 J/K/mol
7.4 K	4.511 J/K/mol	–
7.7 K	–	5.576 J/K/mol
7.78 K	5.114 J/K/mol	–
8.08 K	–	6.258 J/K/mol
8.15 K	5.768 J/K/mol	–
8.46 K	–	6.988 J/K/mol
8.54 K	6.47 J/K/mol	–
8.84 K	–	7.752 J/K/mol
8.92 K	7.205 J/K/mol	–
9.23 K	–	8.549 J/K/mol
9.31 K	7.974 J/K/mol	–
9.61 K	–	9.38 J/K/mol
9.7 K	8.786 J/K/mol	–
10 K	9.42 J/K/mol	10.23 J/K/mol and 10.24 J/K/mol
10.1 K	9.617 J/K/mol	–
10.5 K	–	11.4 J/K/mol
10.6 K	10.74 J/K/mol	–
11.11 K	–	12.83 J/K/mol
11.21 K	12.14 J/K/mol	–
11.73 K	–	14.33 J/K/mol
11.82 K	13.61 J/K/mol	–
12.34 K	–	15.89 J/K/mol
12.44 K	15.14 J/K/mol	–
12.96 K	–	17.5 J/K/mol
13.07 K	16.72 J/K/mol	–
13.58 K	–	19.15 J/K/mol
13.69 K	18.35 J/K/mol	–
14.2 K	–	20.8 J/K/mol
14.32 K	20 J/K/mol	–
14.83 K	–	22.52 J/K/mol
14.96 K	21.77 J/K/mol	–
15 K	21.91 J/K/mol	23.07 J/K/mol
15.57 K	–	24.74 J/K/mol
15.71 K	23.92 J/K/mol	–
16.43 K	–	27.33 J/K/mol
16.57 K	26.44 J/K/mol	–
17.29 K	–	29.78 J/K/mol
17.43 K	28.91 J/K/mol	–
18.15 K	–	32.35 J/K/mol
18.3 K	31.39 J/K/mol	–
19.01 K	–	34.88 J/K/mol
19.17 K	33.9 J/K/mol	–
19.88 K	–	37.39 J/K/mol
20 K	36.32 J/K/mol	37.79 J/K/mol
20.05 K	36.43 J/K/mol	–
21.09 K	–	41.05 J/K/mol
21.26 K	40.04 J/K/mol	–
22.65 K	–	45.73 J/K/mol
22.82 K	44.72 J/K/mol	–
24.21 K	–	50.47 J/K/mol
24.39 K	49.42 J/K/mol	–
25 K	51.22 J/K/mol	52.78 J/K/mol
25.78 K	–	55.12 J/K/mol
25.97 K	54.13 J/K/mol	–
27.35 K	–	59.68 J/K/mol
27.55 K	58.67 J/K/mol	–
28.87 K	–	64.05 J/K/mol
29.08 K	63.06 J/K/mol	–
30 K	65.66 J/K/mol	67.29 J/K/mol
30.42 K	–	68.44 J/K/mol
30.66 K	67.49 J/K/mol	–
32.16 K	–	73.29 J/K/mol
32.42 K	72.33 J/K/mol	–
34.07 K	–	78.36 J/K/mol
34.34 K	77.4 J/K/mol	–
35 K	79.1 J/K/mol	80.71 J/K/mol
35.98 K	–	83.21 J/K/mol
36.27 K	82.31 J/K/mol	–
37.9 K	–	87.91 J/K/mol
38.19 K	87.1 J/K/mol	–
39.82 K	–	92.51 J/K/mol
40 K	91.48 J/K/mol	92.99 J/K/mol
40.12 K	91.75 J/K/mol	–
41.83 K	–	97.3 J/K/mol
42.14 K	96.59 J/K/mol	–
43.94 K	–	102.2 J/K/mol
44.27 K	101.5 J/K/mol	–
45 K	103.2 J/K/mol	104.6 J/K/mol
46.06 K	–	107 J/K/mol
46.4 K	106.3 J/K/mol	–
48.18 K	–	111.7 J/K/mol
48.53 K	111 J/K/mol	–
50 K	114.1 J/K/mol	115.6 J/K/mol
50.3 K	–	116.2 J/K/mol
50.66 K	115.5 J/K/mol	–
52.42 K	–	120.6 J/K/mol
52.79 K	119.8 J/K/mol	–
54.54 K	–	124.8 J/K/mol
54.93 K	124 J/K/mol	–
56.66 K	–	128.7 J/K/mol
57.07 K	128 J/K/mol	–
58.79 K	–	132.7 J/K/mol
59.21 K	131.9 J/K/mol	–
60 K	133.3 J/K/mol	135 J/K/mol
60.93 K	–	136.6 J/K/mol
61.36 K	135.7 J/K/mol	–
63.07 K	–	140.4 J/K/mol
63.51 K	139.5 J/K/mol	–
65.21 K	–	144.2 J/K/mol
65.66 K	143 J/K/mol	–
67.34 K	–	147.9 J/K/mol
67.81 K	146.6 J/K/mol	–
69.48 K	–	151.6 J/K/mol
69.96 K	150.1 J/K/mol	–
70 K	150.1 J/K/mol	152.5 J/K/mol
71.72 K	–	155.5 J/K/mol
72.22 K	153.7 J/K/mol	–
74.07 K	–	159.5 J/K/mol
74.59 K	157.4 J/K/mol	–
76.42 K	–	163.4 J/K/mol
76.96 K	161 J/K/mol	–
78.77 K	–	167.3 J/K/mol
79.33 K	164.5 J/K/mol	–
79.7 K	165.1 J/K/mol	–
80 K	165.4 J/K/mol	169.5 J/K/mol
80.09 K	165.7 J/K/mol	–
80.17 K	–	169.7 J/K/mol
81.13 K	–	171.2 J/K/mol
81.61 K	167.8 J/K/mol	–
81.71 K	167.9 J/K/mol	–
81.87 K	168.2 J/K/mol	–
81.93 K	–	172.6 J/K/mol
83.39 K	170.3 J/K/mol	–
83.49 K	–	175 J/K/mol
83.65 K	170.6 J/K/mol	–
83.69 K	–	175.5 J/K/mol
84.09 K	171.2 J/K/mol	–
85.19 K	172.7 J/K/mol	–
85.45 K	173.2 J/K/mol	–
85.46 K	–	178.2 J/K/mol
87 K	175.2 J/K/mol	–
87.24 K	–	181 J/K/mol
87.26 K	175.7 J/K/mol	–
88.81 K	177.8 J/K/mol	–
89.03 K	–	183.9 J/K/mol
89.08 K	178.2 J/K/mol	–
90 K	179.5 J/K/mol	185.3 J/K/mol
90.64 K	180.3 J/K/mol	–
90.83 K	–	186.6 J/K/mol
90.9 K	180.7 J/K/mol	–
92.07 K	–	188.5 J/K/mol
92.47 K	182.7 J/K/mol	–
92.64 K	–	189.3 J/K/mol
92.74 K	183.1 J/K/mol	–
93.91 K	–	191.2 J/K/mol
94.31 K	185.2 J/K/mol	–
94.58 K	185.6 J/K/mol	–
95.76 K	–	193.9 J/K/mol
96.17 K	187.6 J/K/mol	–
96.43 K	187.9 J/K/mol	–
97.6 K	–	196.8 J/K/mol
98.02 K	190.1 J/K/mol	–
98.29 K	190.4 J/K/mol	–
99.45 K	–	199.4 J/K/mol
99.89 K	192.4 J/K/mol	–
100 K	192.5 J/K/mol	200.2 J/K/mol
100.16 K	192.7 J/K/mol	–
101.31 K	–	202.1 J/K/mol
101.76 K	194.8 J/K/mol	–
102.03 K	195.1 J/K/mol	–
103.16 K	–	204.8 J/K/mol
103.64 K	197.2 J/K/mol	–
103.91 K	197.5 J/K/mol	–
105.01 K	–	207.5 J/K/mol
105.53 K	199.4 J/K/mol	–
105.8 K	199.8 J/K/mol	–
106.87 K	–	210.2 J/K/mol
107.42 K	201.7 J/K/mol	–
107.69 K	202.1 J/K/mol	–
108.73 K	–	212.9 J/K/mol
109.32 K	204.1 J/K/mol	–
109.58 K	204.4 J/K/mol	–
110 K	204.9 J/K/mol	214.7 J/K/mol
110.6 K	–	215.5 J/K/mol
111.22 K	206.4 J/K/mol	–
111.49 K	206.7 J/K/mol	–
112.46 K	–	218.2 J/K/mol
113.12 K	208.7 J/K/mol	–
113.39 K	209 J/K/mol	–
114.33 K	–	220.8 J/K/mol
115.03 K	210.9 J/K/mol	–
115.3 K	211.2 J/K/mol	–
116.2 K	–	223.4 J/K/mol
116.94 K	213.1 J/K/mol	–
117.21 K	213.4 J/K/mol	–
118.07 K	–	226.1 J/K/mol
118.86 K	215.4 J/K/mol	–
119.13 K	215.7 J/K/mol	–
119.94 K	–	228.8 J/K/mol
120 K	216.7 J/K/mol	229 J/K/mol
120.78 K	217.6 J/K/mol	–
121.05 K	218 J/K/mol	–
121.81 K	–	231.5 J/K/mol
122.7 K	219.9 J/K/mol	–
122.97 K	220.2 J/K/mol	–
123.69 K	–	234.2 J/K/mol
124.63 K	222.1 J/K/mol	–
124.9 K	222.4 J/K/mol	–
125.57 K	–	237 J/K/mol
126.55 K	224.3 J/K/mol	–
126.83 K	224.6 J/K/mol	–
127.44 K	–	239.7 J/K/mol
128.49 K	226.5 J/K/mol	–
128.76 K	226.8 J/K/mol	–
129.32 K	–	242.4 J/K/mol
130 K	228.2 J/K/mol	243.4 J/K/mol
130.42 K	228.7 J/K/mol	–
130.69 K	229 J/K/mol	–
131.2 K	–	245.1 J/K/mol
132.35 K	230.9 J/K/mol	–
132.62 K	231.1 J/K/mol	–
133.08 K	–	248 J/K/mol
134.29 K	233.1 J/K/mol	–
134.56 K	233.4 J/K/mol	–
134.97 K	–	250.8 J/K/mol
136.23 K	235.3 J/K/mol	–
136.5 K	235.6 J/K/mol	–
136.86 K	–	253.6 J/K/mol
138.16 K	237.5 J/K/mol	–
138.44 K	237.8 J/K/mol	–
138.74 K	–	256.4 J/K/mol
140 K	239.7 J/K/mol	258.2 J/K/mol
140.11 K	239.7 J/K/mol	–
140.38 K	240 J/K/mol	–
140.63 K	–	259.2 J/K/mol
142.05 K	242 J/K/mol	–
142.32 K	242.3 J/K/mol	–
142.52 K	–	262 J/K/mol
143.99 K	244.3 J/K/mol	–
144.26 K	244.6 J/K/mol	–
144.42 K	–	264.9 J/K/mol
145.93 K	246.5 J/K/mol	–
146.2 K	246.8 J/K/mol	–
146.31 K	–	267.8 J/K/mol
147.87 K	248.8 J/K/mol	–
148.14 K	249 J/K/mol	–
